Assays:
[1] = biological target: Dual specificity mitogen-activated protein kinase kinase 4 (Homo sapiens) (UniProt P45985); details: Compound concentration 100.0 nM
[2] = biological target: Cyclin-dependent kinase 3 (Homo sapiens) (UniProt Q00526); details: Compound concentration 100.0 nM
[3] = biological target: Aurora kinase C (Homo sapiens) (UniProt Q9UQB9); details: Compound concentration 100.0 nM
[4] = biological target: Tyrosine-protein kinase ABL1 (Homo sapiens) (UniProt P00519); details: Compound concentration 100.0 nM
[5] = biological target: 5-hydroxytryptamine receptor 1E (Homo sapiens) (UniProt P28566); details: Compound concentration 10.0 uM
[6] = test system: Proto-oncogene tyrosine-protein kinase receptor Ret (Homo sapiens), P07949 [V804M]; details: Compound concentration 100.0 nM
[7] = test system: Receptor-type tyrosine-protein kinase FLT3 (Homo sapiens), P36888 [R834Q]; details: Compound concentration 100.0 nM
[8] = biological target: Macrophage colony-stimulating factor 1 receptor (Homo sapiens) (UniProt P07333); details: Compound concentration 100.0 nM
[9] = biological target: Phosphatidylinositol 4,5-bisphosphate 3-kinase catalytic subunit alpha isoform (Homo sapiens) (UniProt P42336); details: Compound concentration 100.0 nM
[10] = biological target: Casein kinase II subunit alpha (Homo sapiens) (UniProt P68400); details: Compound concentration 100.0 nM
[11] = biological target: Phosphatidylinositol 5-phosphate 4-kinase type-2 beta (Homo sapiens) (UniProt P78356); details: Compound concentration 100.0 nM
[12] = biological target: Serine/threonine-protein kinase DCLK3 (Homo sapiens) (UniProt Q9C098); details: Compound concentration 100.0 nM
[13] = biological target: Tyrosine-protein kinase Lck (Homo sapiens) (UniProt P06239); details: Compound concentration 100.0 nM
[14] = biological target: Macrophage colony-stimulating factor 1 receptor (Homo sapiens) (UniProt P07333); details: Compound concentration 100.0 nM; remark: listed apart in the source
[15] = biological target: Serine/threonine-protein kinase NLK (Homo sapiens) (UniProt Q9UBE8); details: Compound concentration 100.0 nM
[16] = biological target: Casein kinase I isoform delta (Homo sapiens) (UniProt P48730); details: Compound concentration 100.0 nM
[17] = biological target: Dual specificity protein kinase CLK4 (Homo sapiens) (UniProt Q9HAZ1); details: Compound concentration 100.0 nM
[18] = test system: Epidermal growth factor receptor (Homo sapiens), P00533 [T790M]; details: Compound concentration 100.0 nM
[19] = biological target: Histamine H3 receptor (Homo sapiens) (UniProt Q9Y5N1); details: Compound concentration 10.0 uM
[20] = test system: Receptor-type tyrosine-protein kinase FLT3 (Homo sapiens), P36888 [UNDEFINED MUTATION]; details: Compound concentration 100.0 nM
[21] = biological target: 5-hydroxytryptamine receptor 1A (Homo sapiens) (UniProt P08908); details: Compound concentration 10.0 uM
[22] = biological target: Casein kinase I isoform gamma-1 (Homo sapiens) (UniProt Q9HCP0); details: Compound concentration 100.0 nM
[23] = biological target: Tyrosine-protein kinase Srms (Homo sapiens) (UniProt Q9H3Y6); details: Compound concentration 100.0 nM
[24] = biological target: Activin receptor type-1B (Homo sapiens) (UniProt P36896); details: Compound concentration 100.0 nM
[25] = test system: Epidermal growth factor receptor (Homo sapiens), P00533 [UNDEFINED MUTATION]; details: Compound concentration 100.0 nM
[26] = biological target: Serine/threonine-protein kinase PAK 4 (Homo sapiens) (UniProt O96013); details: Compound concentration 100.0 nM
[27] = biological target: Serine/threonine-protein kinase MRCK gamma (Homo sapiens) (UniProt Q6DT37); details: Compound concentration 100.0 nM
[28] = biological target: Cyclin-dependent kinase-like 2 (Homo sapiens) (UniProt Q92772); details: Compound concentration 100.0 nM
[29] = biological target: Calcium/calmodulin-dependent protein kinase kinase 1 (Homo sapiens) (UniProt Q8N5S9); details: Compound concentration 100.0 nM
[30] = biological target: Insulin receptor (Homo sapiens) (UniProt P06213); details: Compound concentration 100.0 nM
[31] = biological target: Serine/threonine-protein kinase Chk1 (Homo sapiens) (UniProt O14757); details: Compound concentration 100.0 nM
[32] = biological target: High affinity nerve growth factor receptor (Homo sapiens) (UniProt P04629); details: Compound concentration 100.0 nM
[33] = biological target: Mitogen-activated protein kinase 6 (Homo sapiens) (UniProt Q16659); details: Compound concentration 100.0 nM
[34] = biological target: Serine/threonine-protein kinase PAK 5 (Homo sapiens) (UniProt Q9P286); details: Compound concentration 100.0 nM
[35] = biological target: SNF-related serine/threonine-protein kinase (Homo sapiens) (UniProt Q9NRH2); details: Compound concentration 100.0 nM
[36] = biological target: Serine/threonine-protein kinase 32B (Homo sapiens) (UniProt Q9NY57); details: Compound concentration 100.0 nM
[37] = biological target: Muscle, skeletal receptor tyrosine-protein kinase (Homo sapiens) (UniProt O15146); details: Compound concentration 100.0 nM
[38] = biological target: Wee1-like protein kinase (Homo sapiens) (UniProt P30291); details: Compound concentration 100.0 nM
[39] = biological target: Calcium/calmodulin-dependent protein kinase type 1 (Homo sapiens) (UniProt Q14012); details: Compound concentration 100.0 nM
[40] = biological target: Tyrosine-protein kinase ITK/TSK (Homo sapiens) (UniProt Q08881); details: Compound concentration 100.0 nM
[41] = biological target: Serine/threonine-protein kinase DCLK1 (Homo sapiens) (UniProt O15075); details: Compound concentration 100.0 nM
[42] = biological target: GABA-A receptor; anion channel (Rattus norvegicus) (UniProt O09028+P15431+P18506+P18508+P19969+P20236+P23574+P23576+P28471+P28473+P30191+P62813+P63079+P63138+Q91ZM7+Q9ES14); details: Compound concentration 10.0 uM
[43] = biological target: RAC-alpha serine/threonine-protein kinase (Homo sapiens) (UniProt P31749); details: Compound concentration 100.0 nM
[44] = biological target: Sodium-dependent dopamine transporter (Homo sapiens) (UniProt Q01959); details: Compound concentration 10.0 uM

Macrophage colony-stimulating factor 1 receptor (Homo sapiens), sequence (P07333 whole entry, canonical isoform): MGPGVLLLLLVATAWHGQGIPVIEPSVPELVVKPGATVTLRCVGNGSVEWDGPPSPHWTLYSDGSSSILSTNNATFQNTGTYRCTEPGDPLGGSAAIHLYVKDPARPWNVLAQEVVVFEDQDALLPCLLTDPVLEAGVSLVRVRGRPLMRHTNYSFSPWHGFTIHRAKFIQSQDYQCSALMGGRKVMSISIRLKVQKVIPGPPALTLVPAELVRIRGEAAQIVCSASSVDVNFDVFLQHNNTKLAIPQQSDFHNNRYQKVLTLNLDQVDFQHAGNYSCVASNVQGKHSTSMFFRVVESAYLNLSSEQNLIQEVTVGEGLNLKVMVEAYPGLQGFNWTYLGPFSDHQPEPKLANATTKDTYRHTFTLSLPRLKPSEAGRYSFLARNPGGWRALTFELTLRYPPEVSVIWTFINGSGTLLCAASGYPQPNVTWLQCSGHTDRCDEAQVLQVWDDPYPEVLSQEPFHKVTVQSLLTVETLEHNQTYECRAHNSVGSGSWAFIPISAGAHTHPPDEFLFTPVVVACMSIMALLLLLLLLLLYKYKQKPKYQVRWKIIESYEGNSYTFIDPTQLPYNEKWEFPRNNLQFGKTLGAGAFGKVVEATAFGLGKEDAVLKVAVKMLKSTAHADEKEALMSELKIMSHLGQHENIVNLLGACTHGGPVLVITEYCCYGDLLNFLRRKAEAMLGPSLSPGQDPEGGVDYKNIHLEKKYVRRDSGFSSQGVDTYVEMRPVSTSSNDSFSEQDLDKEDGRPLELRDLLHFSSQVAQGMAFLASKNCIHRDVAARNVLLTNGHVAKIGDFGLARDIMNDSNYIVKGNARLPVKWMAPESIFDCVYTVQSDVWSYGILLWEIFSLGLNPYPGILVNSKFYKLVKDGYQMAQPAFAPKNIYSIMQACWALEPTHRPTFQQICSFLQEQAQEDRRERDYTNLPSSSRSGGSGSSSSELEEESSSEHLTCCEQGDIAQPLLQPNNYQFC
Serine/threonine-protein kinase PAK 4 (Homo sapiens), sequence (O96013 whole entry, looked up): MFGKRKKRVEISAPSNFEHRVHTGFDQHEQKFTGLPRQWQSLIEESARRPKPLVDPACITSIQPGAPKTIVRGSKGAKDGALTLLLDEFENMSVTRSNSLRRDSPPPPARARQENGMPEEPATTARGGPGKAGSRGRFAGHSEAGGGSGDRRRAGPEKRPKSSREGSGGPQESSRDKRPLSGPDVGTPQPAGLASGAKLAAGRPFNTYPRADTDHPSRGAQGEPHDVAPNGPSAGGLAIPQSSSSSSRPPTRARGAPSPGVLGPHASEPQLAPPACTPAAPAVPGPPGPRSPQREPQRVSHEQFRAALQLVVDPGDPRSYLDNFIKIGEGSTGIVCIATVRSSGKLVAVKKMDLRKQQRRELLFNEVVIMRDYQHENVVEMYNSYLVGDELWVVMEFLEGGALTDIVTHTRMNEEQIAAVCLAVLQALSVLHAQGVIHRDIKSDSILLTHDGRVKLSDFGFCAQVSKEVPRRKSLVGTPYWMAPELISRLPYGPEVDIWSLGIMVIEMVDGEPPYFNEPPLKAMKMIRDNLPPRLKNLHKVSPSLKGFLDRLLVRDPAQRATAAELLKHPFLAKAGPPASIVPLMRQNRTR
Mitogen-activated protein kinase 6 (Homo sapiens), sequence (Q16659 whole entry): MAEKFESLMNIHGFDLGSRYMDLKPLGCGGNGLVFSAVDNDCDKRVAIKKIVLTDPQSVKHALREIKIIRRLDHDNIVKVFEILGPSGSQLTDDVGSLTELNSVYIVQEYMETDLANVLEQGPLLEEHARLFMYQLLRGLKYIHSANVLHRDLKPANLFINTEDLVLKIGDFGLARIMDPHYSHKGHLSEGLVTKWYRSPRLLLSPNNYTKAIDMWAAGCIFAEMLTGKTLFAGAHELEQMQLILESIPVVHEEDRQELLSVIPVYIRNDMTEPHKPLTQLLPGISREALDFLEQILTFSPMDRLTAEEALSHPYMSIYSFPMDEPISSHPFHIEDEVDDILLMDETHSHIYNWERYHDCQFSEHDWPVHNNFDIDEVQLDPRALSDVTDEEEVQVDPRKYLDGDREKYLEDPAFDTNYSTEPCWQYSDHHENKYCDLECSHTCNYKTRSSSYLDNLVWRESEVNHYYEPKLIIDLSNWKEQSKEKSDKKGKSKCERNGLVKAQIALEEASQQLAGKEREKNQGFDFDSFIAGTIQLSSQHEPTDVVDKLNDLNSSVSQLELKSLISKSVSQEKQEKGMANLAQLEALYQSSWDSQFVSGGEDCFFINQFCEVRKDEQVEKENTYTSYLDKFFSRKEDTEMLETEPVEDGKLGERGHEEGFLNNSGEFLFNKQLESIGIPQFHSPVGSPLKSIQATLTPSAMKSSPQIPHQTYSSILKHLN
5-hydroxytryptamine receptor 1E (Homo sapiens), sequence (P28566 whole entry): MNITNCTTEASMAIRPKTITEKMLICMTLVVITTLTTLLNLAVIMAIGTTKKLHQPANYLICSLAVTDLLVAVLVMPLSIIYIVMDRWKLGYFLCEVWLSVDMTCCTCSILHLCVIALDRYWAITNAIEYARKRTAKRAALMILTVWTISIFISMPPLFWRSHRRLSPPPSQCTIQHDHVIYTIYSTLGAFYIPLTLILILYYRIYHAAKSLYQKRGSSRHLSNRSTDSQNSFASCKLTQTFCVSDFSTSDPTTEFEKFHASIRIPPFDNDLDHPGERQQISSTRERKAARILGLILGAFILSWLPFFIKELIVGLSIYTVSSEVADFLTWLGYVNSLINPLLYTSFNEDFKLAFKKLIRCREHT
Dual specificity protein kinase CLK4 (Homo sapiens), sequence (Q9HAZ1 whole entry, looked up): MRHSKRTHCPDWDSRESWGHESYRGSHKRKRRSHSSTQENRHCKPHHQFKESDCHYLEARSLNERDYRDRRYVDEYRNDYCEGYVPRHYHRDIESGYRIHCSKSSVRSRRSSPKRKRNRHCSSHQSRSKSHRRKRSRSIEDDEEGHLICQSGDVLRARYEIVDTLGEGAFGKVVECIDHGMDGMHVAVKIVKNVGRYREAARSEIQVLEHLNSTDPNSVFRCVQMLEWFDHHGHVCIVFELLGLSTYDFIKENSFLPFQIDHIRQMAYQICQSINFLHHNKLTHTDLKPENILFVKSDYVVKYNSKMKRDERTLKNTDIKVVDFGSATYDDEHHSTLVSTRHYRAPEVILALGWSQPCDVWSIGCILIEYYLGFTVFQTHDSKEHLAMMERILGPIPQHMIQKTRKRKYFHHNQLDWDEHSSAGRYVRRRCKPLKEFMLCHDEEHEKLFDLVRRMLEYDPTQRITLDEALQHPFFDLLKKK
Casein kinase I isoform delta (Homo sapiens), sequence (P48730 whole entry, looked up, canonical isoform): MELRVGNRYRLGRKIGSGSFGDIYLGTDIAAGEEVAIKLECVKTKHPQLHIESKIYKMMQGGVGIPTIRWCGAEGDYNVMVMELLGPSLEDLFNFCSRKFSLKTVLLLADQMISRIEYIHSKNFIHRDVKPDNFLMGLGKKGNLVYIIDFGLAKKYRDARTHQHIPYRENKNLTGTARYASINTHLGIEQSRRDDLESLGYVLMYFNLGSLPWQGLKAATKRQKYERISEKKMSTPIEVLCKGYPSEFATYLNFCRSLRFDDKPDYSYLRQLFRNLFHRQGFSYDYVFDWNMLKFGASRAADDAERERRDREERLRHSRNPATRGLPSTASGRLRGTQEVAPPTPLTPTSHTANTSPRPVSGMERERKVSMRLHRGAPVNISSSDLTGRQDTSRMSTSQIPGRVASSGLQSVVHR
Tyrosine-protein kinase ITK/TSK (Homo sapiens), sequence (Q08881 whole entry): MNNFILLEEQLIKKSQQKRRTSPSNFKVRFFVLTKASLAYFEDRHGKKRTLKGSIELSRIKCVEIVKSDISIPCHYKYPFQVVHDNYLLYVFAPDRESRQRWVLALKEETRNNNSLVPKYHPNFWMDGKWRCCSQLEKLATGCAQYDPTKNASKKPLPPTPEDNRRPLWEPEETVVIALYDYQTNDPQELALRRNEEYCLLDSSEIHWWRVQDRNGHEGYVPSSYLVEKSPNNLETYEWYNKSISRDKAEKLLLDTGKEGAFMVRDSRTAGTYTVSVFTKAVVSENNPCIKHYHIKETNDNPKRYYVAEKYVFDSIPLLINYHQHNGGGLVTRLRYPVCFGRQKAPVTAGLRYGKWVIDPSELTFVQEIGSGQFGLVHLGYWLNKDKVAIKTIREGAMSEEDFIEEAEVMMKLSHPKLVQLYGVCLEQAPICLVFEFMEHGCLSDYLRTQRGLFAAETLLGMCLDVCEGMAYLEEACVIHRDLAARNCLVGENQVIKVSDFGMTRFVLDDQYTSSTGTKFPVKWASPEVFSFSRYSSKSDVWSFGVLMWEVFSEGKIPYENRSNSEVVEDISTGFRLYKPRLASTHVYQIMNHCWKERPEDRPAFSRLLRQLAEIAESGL
Wee1-like protein kinase (Homo sapiens), sequence (P30291 whole entry, looked up): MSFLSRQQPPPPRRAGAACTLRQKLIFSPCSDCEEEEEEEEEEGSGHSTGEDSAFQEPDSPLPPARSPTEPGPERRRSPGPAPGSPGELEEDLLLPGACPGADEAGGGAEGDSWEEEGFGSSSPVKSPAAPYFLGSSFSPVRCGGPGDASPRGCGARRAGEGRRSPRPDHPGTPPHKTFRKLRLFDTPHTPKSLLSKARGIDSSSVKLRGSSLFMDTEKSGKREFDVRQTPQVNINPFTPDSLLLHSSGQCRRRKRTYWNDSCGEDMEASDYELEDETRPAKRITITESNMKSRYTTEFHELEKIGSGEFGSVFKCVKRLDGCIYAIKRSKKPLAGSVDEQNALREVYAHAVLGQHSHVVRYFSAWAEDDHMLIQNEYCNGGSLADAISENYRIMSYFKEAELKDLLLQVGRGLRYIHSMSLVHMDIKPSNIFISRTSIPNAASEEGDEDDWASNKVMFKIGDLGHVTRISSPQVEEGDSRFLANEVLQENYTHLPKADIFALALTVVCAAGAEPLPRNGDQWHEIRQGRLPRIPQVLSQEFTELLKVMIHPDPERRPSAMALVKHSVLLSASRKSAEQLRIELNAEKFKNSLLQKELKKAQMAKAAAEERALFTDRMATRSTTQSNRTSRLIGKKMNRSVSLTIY

Nc1c(C(=O)NCc2ccc(C(=O)NCCCC3CCCCC3)cc2)cnn1-c1ccccc1 [SR-318]
inactive: residual activity [1] 100% | residual activity [2] 100% | residual activity [3] 100% | residual activity [4] 97% | inhibition [5] 1% | residual activity [6] 98% | residual activity [7] 100% | residual activity [8] 91% | residual activity [9] 100% | residual activity [10] 70% | residual activity [11] 100% | residual activity [12] 100% | residual activity [13] 82% | residual activity [14] 100% | residual activity [15] 96% | residual activity [16] 100% | residual activity [17] 96% | residual activity [18] 100% | inhibition [19] -2.98% | residual activity [20] 73% | inhibition [21] -1.43% | residual activity [22] 100% | residual activity [23] 100% | residual activity [24] 100% | residual activity [25] 84% | residual activity [26] 99% | residual activity [27] 100% | residual activity [28] 93% | residual activity [29] 100% | residual activity [30] 100% | residual activity [31] 100% | residual activity [32] 100% | residual activity [33] 92% | residual activity [34] 100% | residual activity [35] 91% | residual activity [36] 100% | residual activity [37] 97% | residual activity [38] 100% | residual activity [39] 100% | residual activity [40] 93% | residual activity [41] 100% | inhibition [42] 21.7% | residual activity [43] 100% | inhibition [44] 26.8%

O=C(NCCCC1CCCCC1)c1ccc(CNC(=O)c2cnn(-c3ccccc3)c2C(F)(F)F)cc1 [SR-321]
inactive: residual activity [1] 100% | residual activity [2] 100% | residual activity [3] 100% | residual activity [4] 88% | inhibition [5] -6.92% | residual activity [6] 100% | residual activity [7] 100% | residual activity [8] 100% | residual activity [9] 100% | residual activity [10] 94% | residual activity [11] 96% | residual activity [12] 100% | residual activity [13] 100% | residual activity [14] 100% | residual activity [15] 100% | residual activity [16] 100% | residual activity [17] 100% | residual activity [18] 97% | inhibition [19] 9.12% | residual activity [20] 100% | inhibition [21] 20.1% | residual activity [22] 100% | residual activity [23] 93% | residual activity [24] 100% | residual activity [25] 100% | residual activity [26] 100% | residual activity [27] 99% | residual activity [28] 100% | residual activity [29] 100% | residual activity [30] 100% | residual activity [31] 100% | residual activity [32] 100% | residual activity [33] 100% | residual activity [34] 100% | residual activity [35] 100% | residual activity [36] 100% | residual activity [37] 100% | residual activity [38] 97% | residual activity [39] 100% | residual activity [40] 100% | residual activity [41] 100% | inhibition [42] -4.39% | residual activity [43] 100% | inhibition [44] 22.3%

— ChEMBL document CHEMBL4507315 (2021)
